{
  "source": "patent US20250102494A1",
  "about": "“COMPOSITION FOR PREDICTING OXALIPLATIN DRUG EFFICACY, AND USE THEREOF” (SAMSUNG LIFE PUBLIC WELFARE FOUNDATION, priority 2022, published 2025)",
  "assay_type_in_all_cases": "cell-based",
  "key": {"RKO cells": {"tested_on": "RKO cells", "assay": "ATPlite cell viability after oxaliplatin, RKO cells in organoid culture media", "experimental": "(§1) Advanced DMEM/F12+++ (hereinafter referred to as “Ad/DF+++”) was used to produce colorectal cancer organoids. Ad/DF+++ was refrigerated at 4° C. until use, and was used in a cold state during cell washing. Ad/DF+++ medium containing the reagents shown in Table 1 below along with Ad/DF 1× (Gibco) was prepared.\n(§2) After preparing the Ad/DF+++ medium containing the above reagents, an appropriate amount of Matrigel (Corning #356231) was added so that the ratio between Matrigel and cells suspended in the Ad/DF+++ medium was 7:3. Then, the cells were plated on low attachment well plates at an appropriate density. The density and the type and number of well plates were determined according to the characteristics of each cell type. The medium was prepared according to the composition shown in Table 2 below, and the cells were cultured (expanded) until the required level was reached while the medium was replaced every 3 to 4 days.\nIf the organoids were expanded as needed for the experiment, the medium was carefully removed, taking care not to touch the Matrigel. The cells were separated from the Matrigel by pipetting about 20 times with 1 ml of cold Ad/DF+++. The cells in 1 to 4 wells per 6-well plate were collected in one 50 ml tube. If cells are collected from more than 4 wells into one tube, the Metrigel may not be washed properly. For this reason, the cells were placed in several tubes. […] After suspending the pellet in Ad/DF+++, the cells were counted and diluted with medium according to the required number of cells. […]\n(§3) Four hours after the medium change, the cells were treated with oxaliplatin, 5-FU, Irinotecan, and folinic acid. Five days after drug treatment, intracellular ATP expression was determined using the ATPlite assay kit (PerkinElmer), and the data were expressed in terms of cell viability, IC50, and AUC.\nAs the standard for confirming that cells are sensitive to the drug, the response of the cells to the drug was assumed to be 100%, and the luminescence value of surviving cells after drug treatment was analyzed and compared with the quantified drug response value. […]"}, "HT29 cells": {"tested_on": "HT29 cells", "assay": "ATPlite cell viability after oxaliplatin, HT29 cells in organoid culture media", "experimental": "as §1\nas §2, with “The medium was prepared according to the composition shown in Table 2 below, and the cells were cultured (expanded) until the required level was reached while the medium was replaced every 3 to 4 days.” left out\nIf the organoids were expanded as needed for the experiment, the medium was carefully removed, taking care not to touch the Matrigel. […] After suspending the pellet in Ad/DF+++, the cells were counted and diluted with medium according to the required number of cells. […]\nas §3, with “AUC. […]” for “AUC.”"}, "[1]": {"tested_on": "Resistant Cell Line (HT29, HTC15, CoLo205, Lovo)", "assay": "Average oxaliplatin AUC over resistant colorectal cancer cell lines", "experimental": "as §3\n(§4) As the standard for confirming that cells are sensitive to the drug, the response of the cells to the drug was assumed to be 100%, and the luminescence value of surviving cells after drug treatment was analyzed and compared with the quantified drug response value.\n(§5) Based on the assumption that the factor that increases the resistance of the organoids to oxaliplatin is an activator or inhibitor that changes the phenotype, the organoids prepared by excluding some or all of activators and inhibitors as shown in Table 4 below were treated with oxaliplatin.\n(§6) In order to confirm reduced resistance to oxaliplatin, ECT116, RKO, SW620, and LS147T cell lines, which are highly sensitive to oxaliplatin, and HT29, HTC15, CoLo205, and Lovo cell lines, which are low sensitive to oxaliplatin, were used.\n(§7) When the above results were combined with the results shown by cell lines with high sensitivity to oxaliplatin and cell lines with low sensitivity to oxaliplatin, the result data shown in FIGS. 23 and 24 and Tables 5 to 7 below were obtained."}, "[2]": {"tested_on": "Sensitive Cell Line (HCT116, RKO, SW620, LS147T)", "assay": "Average oxaliplatin AUC over sensitive colorectal cancer cell lines", "experimental": "as §3, §4, §5, §6, §7"}},
  "data": [
    {"smiles": "O=C1[O][Pt]2([NH][C@@H]3CCCC[C@H]3[NH]2)[O]C1=O", "note": "[oxaliplatin]", "values": [
      {"measurement": "AUC value, Ex1 to Ex4 compared", "setting": "RKO cells; FIG. 6", "result": "the lowest in the organoid culture conditions of Ex2"},
      {"measurement": "IC50 value, Ex2 compared with Ex1", "setting": "RKO cells; FIG. 7", "result": "significantly lower in Ex2 than in Ex1"},
      {"measurement": "cell viability versus oxaliplatin concentration", "setting": "RKO cells; MEM control, Ex1, Ex2, FIG. 8", "result": "fastest decrease in cell viability, followed by Ex2"},
      {"measurement": "AUC value, Ex1 to Ex4 compared", "setting": "HT29 cells; HT29, FIG. 15", "result": "Ex1 to Ex3 showed similar AUC values, but Ex4 showed slightly lower AUC values than Ex1 to Ex3"},
      {"measurement": "cell viability versus oxaliplatin concentration", "setting": "HT29 cells; HT29 cell line and Ex1 to Ex4, FIG. 16", "result": "did not decrease under all the culture conditions"},
      {"measurement": "EX1_AUC", "setting": "[1]; average over resistant cell lines, Ex1 medium", "result": 420.02},
      {"measurement": "EX2_AUC", "setting": "[1]; average over resistant cell lines, Ex2 medium", "result": 420.86},
      {"measurement": "normal_AUC", "setting": "[1]; average over resistant cell lines, normal cell-line culture", "result": 391.80},
      {"measurement": "sensitivity to oxaliplatin, Ex2 compared with Ex1", "setting": "[1]; cell lines with low sensitivity, FIG. 24", "result": "no difference in sensitivity to oxaliplatin between Ex1 and Ex2"},
      {"measurement": "EX1 − EX2 (AUC difference)", "setting": "[1]; resistant cell lines", "result": "−0.85"},
      {"measurement": "EX1_AUC", "setting": "[2]; average over sensitive cell lines, Ex1 medium (inhibitors and activators)", "result": 396.08},
      {"measurement": "EX2_AUC", "setting": "[2]; average over sensitive cell lines, Ex2 medium (no inhibitors, no activators)", "result": 347.78},
      {"measurement": "normal_AUC", "setting": "[2]; average over sensitive cell lines, normal cell-line culture", "result": 274.55},
      {"measurement": "sensitivity to oxaliplatin, Ex2 compared with Ex1", "setting": "[2]; cell lines with high sensitivity, FIG. 23", "result": "higher in Ex2 without both inhibitors and activators than in Ex1"},
      {"measurement": "EX1 − EX2 (AUC difference)", "setting": "[2]; sensitive cell lines", "result": 48.30}
    ]}
  ]
}
